Data taken from patent publication US6723343B2, “Pharmaceutical tramadol salts” (Gruenenthal GmbH, priority 1999, dated 2004).

Settings: deionized water, 25° C., stirred for 20 hours, HPLC against tramadol hydrochloride as standard
Method: The solubility of the salts of tramadol and a sugar substitute was determined as follows:
The requisite amount of the salt of tramadol and the appropriate sugar substitute can optionally be determined by preliminary experiments.
After the undissolved salt of tramadol and the appropriate sugar substitute had been allowed to settle out, the clear supernatant was pipetted off and centrifuged for 5 minutes at a speed of at least 3000 rpm. Part of the resulting clear supernatant is transferred to an HPLC sample vial and the concentration of the salt of tramadol and the appropriate sugar substitute is determined against tramadol hydrochloride as standard.

COc1cccc(C2(O)CCCCC2CN(C)C)c1.O=C1NS(=O)(=O)c2ccccc21 (stereo not shown) [tramadol saccharinate]
solubility in water: 22.5 mg/mL
